In PubChem BioAssay (NCI):
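GI50 marks 50% less growth. The concentration for full growth arrest is given as TGI.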

Key:
Experiment in all cases: DTP human tumour cell line panel, 384-well format
SK-MEL-2 melanoma = tested on: SK-MEL-2 melanoma
HCT-15 colon = tested on: HCT-15 colon
DU-145 prostate = tested on: DU-145 prostate
RXF 393 renal = tested on: RXF 393 renal
U251 glioblastoma = tested on: U251 glioblastoma
SF-295 CNS = tested on: SF-295 CNS
HL-60(TB) leukemia = tested on: HL-60(TB) leukemia
786-0 renal = tested on: 786-0 renal
RPMI-8226 leukemia = tested on: RPMI-8226 leukemia
A498 renal = tested on: A498 renal
SNB-19 CNS = tested on: SNB-19 CNS
MOLT-4 leukemia = tested on: MOLT-4 leukemia
OVCAR-3 ovarian = tested on: OVCAR-3 ovarian
NCI-H322M lung = tested on: NCI-H322M lung
CCRF-CEM leukemia = tested on: CCRF-CEM leukemia
SF-268 CNS = tested on: SF-268 CNS
TK-10 renal = tested on: TK-10 renal
KM12 colon = tested on: KM12 colon
SW-620 colon = tested on: SW-620 colon
MALME-3M melanoma = tested on: MALME-3M melanoma
OVCAR-5 ovarian = tested on: OVCAR-5 ovarian
PC-3 prostate = tested on: PC-3 prostate
CAKI-1 renal = tested on: CAKI-1 renal
K-562 leukemia = tested on: K-562 leukemia
HT29 colon = tested on: HT29 colon
LOX IMVI melanoma = tested on: LOX IMVI melanoma

CC[C@H](CO)Nc1nc(NCc2ccccc2)c2ncn(C(C)C)c2n1
GI50 (SK-MEL-2 melanoma): 36.7 µM | TGI (SK-MEL-2 melanoma): 63.6 µM | GI50 (HCT-15 colon): 19.4 µM | TGI (HCT-15 colon): 60.3 µM | GI50 (DU-145 prostate): 20.9 µM | TGI (DU-145 prostate): 56.3 µM | GI50 (RXF 393 renal): 14.1 µM | TGI (RXF 393 renal): 28.2 µM | GI50 (U251 glioblastoma): 28.2 µM | TGI (U251 glioblastoma): > 100 µM | GI50 (SF-295 CNS): 25.2 µM | TGI (SF-295 CNS): 78.6 µM | GI50 (HL-60(TB) leukemia): 14.8 µM | TGI (HL-60(TB) leukemia): 28.1 µM | GI50 ([…]-0 renal): 22.7 µM | TGI (786-0 renal): 61.5 µM | GI50 (RPMI-8226 leukemia): 17 µM | TGI (RPMI-8226 leukemia): 31.6 µM | GI50 (A498 renal): 27.2 µM | TGI (A498 renal): 82.1 µM | GI50 (SNB-19 CNS): 26.8 µM | TGI (SNB-19 CNS): > 100 µM | GI50 (MOLT-4 leukemia): 17.3 µM | TGI (MOLT-4 leukemia): 32.1 µM | GI50 (OVCAR-3 ovarian): 17.2 µM | TGI (OVCAR-3 ovarian): 43.9 µM | GI50 (NCI-H322M lung): 19.1 µM | TGI (NCI-H322M lung): 49.9 µM | GI50 (CCRF-CEM leukemia): 16.8 µM | TGI (CCRF-CEM leukemia): 33.3 µM | GI50 (SF-268 CNS): 15.3 µM | TGI (SF-268 CNS): 35.6 µM | GI50 (TK-10 renal): 25 µM | TGI (TK-10 renal): 83.6 µM | GI50 (KM12 colon): 18.8 µM | TGI (KM12 colon): 43.6 µM | GI50 (SW-620 colon): 29.5 µM | TGI (SW-620 colon): 89.9 µM | GI50 (MALME-3M melanoma): 24.8 µM | TGI (MALME-3M melanoma): 57.8 µM | GI50 (OVCAR-5 ovarian): 24.8 µM | TGI (OVCAR-5 ovarian): > 100 µM | GI50 (PC-3 prostate): 21 µM | TGI (PC-3 prostate): 56.1 µM | GI50 (CAKI-1 renal): 24 µM | TGI (CAKI-1 renal): 77.4 µM | GI50 (K-562 leukemia): 36.1 µM | TGI (K-562 leukemia): > 100 µM | GI50 (HT29 colon): 20.1 µM | TGI (HT29 colon): 47.2 µM | GI50 (LOX IMVI melanoma): 19.3 µM | TGI (LOX IMVI melanoma): 37.5 µM
